From ChEMBL document CHEMBL1201862, “PubChem BioAssay data set” (2004) come the findings set out here.

Molecules are shown by their SMILES.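 In this assay, cells in 96-well plates receive the compound at five concentrations for 48 hours. Endpoints are linearly interpolated between the surrounding concentrations. GI50 is the concentration that inhibits growth by half.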 Active and inactive are the calls of the source. Rule as the data show it: active = GI50 up to about 1.1 µM and inactive = higher.

Common to all, as to test: NCI-60 cell line screen, 48 h
Test [1] has as its system NCI-H522.
Test [2] relates to SF-268.
The subject of test [3] is CAKI-1.
In test [4] the test system is SN12C.
The subject of test [5] is Malme-3M.
In test [6] the test system is MCF7.
In test [7] the test system is HOP-62.
Test [8] deals with MDA-N.
The subject of test [9] is T47D.
Test [10] concerns SK-MEL-28.
The test system of test [11] is 786-0.
For test [12], the system named is UACC-62.
Test [13] deals with UO-31.
The test system of test [14] is SK-MEL-5.
Test [15] concerns NCI-H460.
Test [16] deals with UACC-257.
The test system of test [17] is TK-10.
Test [18] has as its system SF-295.
The subject of test [19] is HL-60.
Test [20] has as its system NCI-H226.

With `N=C(N)NC(CC(=O)O)c1ccccc1` (stereo not drawn), the GI50 in [1], in test [2], in test [3], in test [4], in [5] and in test [6] was > 100 µM (inactive) in each case. Besides, the GI50 in test [7], in [8], in test [9], in test [10], in test [11] and in [12] was > 100 µM (inactive) each time. Besides, the GI50 in [13], in test [14], in [15], in test [16], in test [17] and in [18] was > 100 µM (inactive) throughout.
For the compound `CC(C)(C)C1CCC2c3c([nH]c4ccccc34)C3C(=O)N(c4ccc(C(=O)O)cc4)C(=O)C3C2C1` (stereo not drawn), the GI50 in test [1] was 18.9 µM (inactive); in test [2] it was 14.2 µM (inactive); in test [3], 16.7 µM (inactive); in test [4], 12.8 µM (inactive); in [5], 14.9 µM (inactive); in test [6] it was 11 µM (inactive). The GI50 in [7] is 0.1 µM (active); in test [8] it was 11.9 µM (inactive); in test [10] it was 11.3 µM (inactive); in [11], 15.7 µM (inactive); in [12], 14.2 µM (inactive); in test [19] it was 4.52 µM (inactive). In addition, the GI50 in test [13] was 16.8 µM (inactive); in [14] it was 13.1 µM (inactive); in [15] it was 16.3 µM (inactive); in [20], 20.9 µM (inactive); in [16], 13.9 µM (inactive); in test [17], 17.5 µM (inactive). In addition, the GI50 in test [18] is 10.1 µM (inactive).
With `O=C1/C(=C/c2ccc(O)cc2)NC(=S)N1CN1CCCCC1`, the GI50 in test [1] is 55.3 µM (inactive); in test [2], 89.1 µM (inactive); in test [4], 80 µM (inactive); in test [5], > 100 µM (inactive); in [6], 21.3 µM (inactive); in [7] it was > 100 µM (inactive). Moreover, the GI50 in [8] is > 100 µM (inactive); in test [10], > 100 µM (inactive); in test [11], 62.2 µM (inactive); in [12], 42.9 µM (inactive); in test [19], 71.6 µM (inactive); in test [13] it was 71.4 µM (inactive). Further, the GI50 is 27.4 µM (inactive) in test [14], 78.3 µM (inactive) in test [20], 94 µM (inactive) in test [17] and 89.7 µM (inactive) in [18].
For `N=c1oc2cc(O)ccc2cc1C(=O)Nc1cccc2ccccc12`, the GI50 in test [1] was 1.65 µM (inactive); in test [2], 3.61 µM (inactive); in test [3], 5.97 µM (inactive); in test [4], 5.33 µM (inactive); in test [5] it was 0.883 µM (active); in test [6], 3.93 µM (inactive). The GI50 was 11.3 µM (inactive) in test [7]; 3.5 µM (inactive) in test [9]; 6.34 µM (inactive) in test [10]; 3.45 µM (inactive) in [11]; 3.23 µM (inactive) in test [12]; 2.11 µM (inactive) in test [19]. The GI50 is 4.7 µM (inactive) in [13]; 4.23 µM (inactive) in test [14]; 4.02 µM (inactive) in test [15]; 5.92 µM (inactive) in test [20]; 9.08 µM (inactive) in [16]; 2.69 µM (inactive) in test [17]. In addition, in test [18], the GI50 is 5.18 µM (inactive).
For the compound `COc1ccc(CCc2nccn2C)cc1OC`, the GI50 in test [2], in test [3], in test [4], in [5], in test [6] and in [7] was > 100 µM (inactive) each time. Further, the GI50 in test [8], in test [10], in test [11], in test [12], in test [19] and in test [13] was > 100 µM (inactive) each time. Also, the GI50 in test [14], in [15], in test [16], in [17] and in test [18] was > 100 µM (inactive) throughout.
Turning to `O=Cc1ccc(-c2ccc(-c3ccc(C=O)s3)o2)s1`, the GI50 in test [1] was 15 µM (inactive); in test [2] it was > 100 µM (inactive); in test [3] it was 0.418 µM (active); in test [4] it was 97.9 µM (inactive); in test [5] it was > 100 µM (inactive); in test [7], 8.63 µM (inactive). In addition, the GI50 in test [8] was 60.3 µM (inactive); in test [10], 98.4 µM (inactive); in test [11], 23.8 µM (inactive); in [12] it was 0.108 µM (active); in test [19], > 100 µM (inactive); in [13] it was 68.5 µM (inactive). The GI50 was > 87.7 µM (inactive) in test [14]; 1.91 µM (inactive) in test [15]; 0.656 µM (active) in test [20]; 2.61 µM (inactive) in [16]; 1.46 µM (inactive) in test [17]; > 77.3 µM (inactive) in test [18].
In the case of `COc1ccc(NC(C)=O)cc1C1CCC(=O)N1` (stereo not drawn), the GI50 in test [1], in test [2], in test [3], in [4], in test [5] and in test [6] was > 100 µM (inactive) each time. Besides, the GI50 in test [7], in test [9], in test [10], in test [11], in test [12] and in test [19] was > 100 µM (inactive) each time. Moreover, the GI50 in test [13], in test [14], in test [15], in [20], in test [16] and in test [17] was > 100 µM (inactive) each time. The GI50 in test [18] was > 100 µM (inactive).
Consider `C/C=C(/C)c1cnc(CC(C)C)c(=O)[nH]1`, for which the GI50 in [2], in test [3], in test [4], in test [7], in test [8] and in test [9] was > 100 µM (inactive) throughout. For the same compound, the GI50 in test [10], in test [11], in test [12], in [13], in test [14] and in test [15] was > 100 µM (inactive) throughout. Further, the GI50 in [16], in test [17] and in [18] was > 100 µM (inactive) each time.
With `CNc1nc(N)c(N=O)c(Nc2ccc(Br)cc2)n1`, the GI50 in [1] was > 100 µM (inactive); in test [2] it was 72.9 µM (inactive); in test [4], > 100 µM (inactive); in [5], > 100 µM (inactive); in [6] it was > 100 µM (inactive); in test [7], > 100 µM (inactive). Further, the GI50 in test [8] is > 100 µM (inactive); in test [10] it was > 100 µM (inactive); in test [11] it was > 100 µM (inactive); in test [12], > 100 µM (inactive); in [19], > 100 µM (inactive); in test [13], 9.57 µM (inactive). In addition, the GI50 in test [14], in [15], in [16], in test [17] and in [18] was > 100 µM (inactive) in each case.
Regarding `C[C@@H]1OC(=O)C[C@H]2CC(=O)N(CCC3CN(C(=O)OCc4ccccc4)c4ccccc43)C[C@@H]21` (stereo partly drawn), the GI50 in test [1], in test [2], in test [3], in test [5], in [6] and in test [7] was > 100 µM (inactive) in each case. The GI50 in test [8], in [9], in test [10], in test [11], in [12] and in test [13] was > 100 µM (inactive) in each case. Besides, the GI50 in test [14], in test [15], in [16], in [17] and in test [18] was > 100 µM (inactive) in each case.
Take `Cc1ccc(-c2c(C#N)c(-c3ccc(Cl)cc3)c(C#N)c(=O)n2NS(=O)(=O)c2ccccc2)cc1`: the GI50 was 38.1 µM (inactive) in test [1]; 67 µM (inactive) in [2]; 37.2 µM (inactive) in [3]; 95.1 µM (inactive) in [4]; > 100 µM (inactive) in test [5]; 51.2 µM (inactive) in [6]. The GI50 was 23.4 µM (inactive) in test [7]; > 100 µM (inactive) in test [8]; > 100 µM (inactive) in test [10]; 86.5 µM (inactive) in test [11]; 58.6 µM (inactive) in test [12]; 73.1 µM (inactive) in test [19]. Further, the GI50 in [14] is 31.9 µM (inactive); in test [15], 44.4 µM (inactive); in [20] it was 77.3 µM (inactive); in [16], > 100 µM (inactive); in test [17], 74.3 µM (inactive); in test [18] it was 60.8 µM (inactive).
